Test results: patent publication US11123398B2, “Chemotherapeutic combinations of cationic antimicrobial peptides and chemotherapeutics” (LYTIX BIOPHARMA AS, priority 2014, dated 2021)
Non-standard residues stand in square brackets, D forms with d. Residues, ends and D or L forms follow the SMILES beside them. Dip = N[C@H](C(=O)O)C(c1ccccc1)c1ccccc1

Key:
A375 cells = experiment: TEM electron microscopy, A375; type: cell-based, human
Protocol: A375 cells were seeded at 1×10^5 cells per well in 6-well plates and allowed to grow for three days to optimize membrane structures in the culture, and the media was changed on the second day. Cells were washed twice in serum-free RPMI before being treated with LTX-315 dissolved in serum-free RPMI at 5, 10 and 25 μg/ml, with serum-free RPMI as a negative control. Cells were then washed with PBS twice before fixation for 24 hours in 4° C. with 4% formaldehyde and 1% gluteralaldehyde in a Hepes buffer at pH 7.8. Dehydration and post-fixation protocols included incubation in a 5% buffered tannic acid and incubation in a 1% osmium-reduced ferrocyanide. Ultrathin sections were prepared, and uranyl acetate (5%) and Reynolds's lead citrate were used for staining and contrasting. Samples were examined on a JEOL JEM-1010 transmission electron microscope, and images were taken with an Olympus Morada side-mounted TEM CCD camera (Olympus soft imaging solutions, GmbH, Germany).

IGROV-1/CDDP = experiment: MTS cytotoxicity assay, IGROV-1/CDDP; type: cell-based, human; conditions: IC50 resistant / IC50 sensitive line; cisplatin resistance
Protocol: Tumor cells were plated in 96-well flat-bottom microtitration plates (Nunc, Dutscher, Brumath, France) and incubated at 37° C. for 24 hours before treatment in 190 μl of drug-free culture medium supplemented or not with 10% FBS for adherent or suspension growing cell lines, respectively.
The adherent cell lines were washed once with 200 μl FBS-free culture medium before treatment. Tumor cells were incubated for 4 hours with 10 concentrations of compounds in ¼ dilution step with a top dose of 400 μM (range 4×10^−4 to 4×10^−10 M), with 1% (final concentration) Triton X-100 as positive control and FBS-free culture medium as negative control. The cells (190 μl) were incubated in a 200 μl final volume of FBS-free culture medium containing test substances at 37° C. under 5% CO2.
Three independent experiments were performed, each concentration being tested in quadruplicate. Control cells were treated with vehicle alone. At the end of treatments, the cytotoxic activity was evaluated by a MTS assay (see § 3.3.).
(§1) Like MTT, MTS is bioreduced by cells into a formazan product that is directly soluble in culture medium without processing, unlike MTT.
(§2) At the end of the cells treatment, 40 μl of a 0.22 μm filtered freshly combined solution of MTS (20 ml at 2 mg/ml, Ref G1111, Batch 235897, Exp March 2009, Promega, Charbonnières, France) and PMS (1 ml at 0.92 mg/ml, Ref P9625, Batch 065K0961, Sigma) in Dulbecco's Phosphate Buffered Saline (DPBS, Ref 17-513Q, Batch 6MB0152, Cambrex), were added in each well. Culture plates were incubated for 2 h at 37° C. Absorbency (OD) were measured at 490 nm in each well using VICTOR^3™ 1420 multilabeled counter (Wallac, PerkinElmer, Courtaboeuf, France).
IC50: drug concentration to obtain a 50% inhibition of cell proliferation.
The dose-response curves were plotted using XLFit 3 (IDBS, United Kingdom). The IC50 determination values were calculated using the XLFit 3 software from semi-log curves. Individual IC50 determination values as well as mean and SD values were generated.
Resistance index was calculated using the following formula: […]
Resistance index was calculated for each compound for each couple of sensitive and resistant cell lines. Individual resistance index was calculated when IC50 values of both sensitive and corresponding resistant cell lines were determined within same experiment. In addition, resistance index was also calculated ratio of mean IC50 values obtained during three independent experiments.

[1] = system: panel of 10 lymphoma cell lines; type: cell-based, human
Protocol: (§3) Tumor cells were plated in 96-well flat-bottom microtitration plates (Nunc, Dutscher, Brumath, France) and incubated at 37° C. for 24 hours before treatment in 190 μl of drug-free and FBS-free culture medium.
[…] compounds in ¼ dilution step with a top dose of 400 μM (range 4×10^−4 to […]), with 1% (final concentration) Triton X-100 as positive control and FBS-free culture medium as negative control. The cells (190 μl) were incubated in a 200 μl final volume of FBS-free culture medium containing test substances at 37° C. under 5% CO2.
(§4) Three independent experiments were performed, each concentration being issued from quadruplicate. Control cells were treated with vehicle alone. At the end of treatments, the cytotoxic activity was evaluated by a MTS assay (see § 3.3 below).
as §1, §2
(§5) 4.1. IC50 Data was Determined as in Example 1

human A547 cells = experiment: TEM, A547 cells; type: cell-based; conditions: 10 μg/ml, 60 minutes
[2] = system: murine A20 B cell lymphoma cells; experiment: Re-challenge with A20 B-cell lymphoma in mice with complete regression; type: in vivo, Balb-c mice
Protocol: Methods: Female Balb-c mice (n=4), previously treated with LTX-315, 1 mg) or (n=9); previously treated with LTX-315 0.5 or 1 mg) were re-inoculated (s.c. in the abdominal area) with either murine A20 B cell lymphoma cells or CT26WT colon carcinoma cells (5 million) respectively 6 weeks following initial treatment with LTX-315. Tumour growth was monitored for up to 36 days following re-inoculation.

U-937 cell line = type: cell-based, human; conditions: 4 h
Protocol: as §3
(§6) Tumor cells were incubated for 4 hours with 10 concentrations of compounds in ¼ dilution step with a top dose of 400 μM (range 4×10^−4 to […]), with 1% (final concentration) Triton X-100 as positive control and FBS-free culture medium as negative control. The cells (190 μl) were incubated in a 200 μl final volume of FBS-free culture medium containing test substances at 37° C. under 5% CO2.
as §4, §1, §2, §5

Raji cell line = type: cell-based, human; conditions: 4 h
Protocol: as §3, §6, §4, §1, §2, §5

With `NCCCC[C@H](NC(=O)[C@@H](NC(=O)[C@H](Cc1c[nH]c2ccccc12)NC(=O)[C@H](CCCCN)NC(=O)[C@H](CCCCN)NC(=O)[C@H](Cc1c[nH]c2ccccc12)NC(=O)[C@H](Cc1c[nH]c2ccccc12)NC(=O)[C@H](CCCCN)NC(=O)[C@@H](N)CCCCN)C(c1ccccc1)c1ccccc1)C(N)=O` [LTX-315, K-K-W-W-K-K-W-Dip-K-NH2] (H-KKWWKKW[Dip]K-NH2) the “Cells displaying vacuolization (TEM)” value (A375 cells; 3.5 μM, 60 minutes) was “approximately 20%”, the “Number of necrotic cells (TEM)” value (A375 cells; 3.5 μM, 60 minutes) was “less than 5%” and the “Cells displaying vacuolization (TEM)” value (A375 cells; 17 μM, 60 min) was 4%. The “Cells with necrotic morphology, loss of plasma membrane integrity (TEM)” value (A375 cells; 17 μM, 60 min) was “approximately 40%”, the “Resistance index (RI), IGROV-1/CDDP” value (IGROV-1/CDDP) was 0.50 and the “Potency rank among the five compounds tested, lymphoma panel” value [1] was “most potent compound from the five compounds tested”. For the same compound, the “IC50 range against 10 human lymphoma cell lines” value ([1]; conclusion) was “micromolar range”, the “Effect on mitochondrial membrane (TEM)” value (human A547 cells) was “disintegration of the mitochondrial membrane” and the “Tumour growth after re-inoculation versus control animals” value ([2]; all 4 mice previously treated with LTX-315 1 mg, re-inoculated 6 weeks after treatment, P<0.006) was “Significant inhibition”. The “Mice with complete tumour regression after re-inoculation” value ([2]; of 4 mice previously treated with 1 mg) was 3, the “Animals with relapse after re-inoculation” value ([2]; of 4 mice, 3 weeks later) was 1 and the IC50 (U-937 cell line) was 1.15 ± 0.42 µM. The IC50 (Raji cell line) was 4.93 ± 1.03 µM.
